Experimental data taken from patent publication US9220680B2, “Compositions and methods for localized drug delivery through mammary papillae” (South Dakota State University, priority 2012, dated 2015).

Columns and labels:
[1] = Topical transmammary delivery of tamoxifen with and without α-santalol via porcine mammary papilla (Experiment 27); assay type: in vitro ADME; settings: given in combination with α-santalol
Protocol: From the receptor, 200 μl samples were taken at every time point. After 48 hours, tissues were taken, washed, cut in four sections, weighed and solubilized using the tissue solubilizer. After 24 hours, DPM counts were measured from each section of the tissue using scintillation cocktail.

[2] = system: MDA-MB-231 cells; assay: Western blotting of apoptotic proteins; assay type: cell-based, human; settings: 12, 24 or 48 hours
Protocol: (§1) Western Blotting: Cells were treated with various concentrations of α-santalol and incubated for 12, 24 or 48 hours. Cell lysates were made and subjected to western blot analysis to determine the expression of different proteins.

[3] = system: MCF-7 cells; assay: Western blotting of apoptotic proteins; assay type: cell-based, human; settings: 12, 24 or 48 hours
Protocol: as §1

[4] = system: MDA-MB-231 cells; assay: Cell cycle analysis, propidium iodide flow cytometry; assay type: cell-based, human; settings: 25 μM-75 μM, 12 hours
Protocol: (§2) Cell Cycle Analysis: After 12 hours of treatment with alpha-santalol, cells were fixed with 70% ethanol in PBS, treated with RNaseA, followed by staining with propidium iodide. Cells were analyzed by flow cytometry to determine cell-cycle distribution.

[5] = system: MCF-7 cells; assay: as above; assay type: cell-based, human; settings: 25 μM-75 μM, 12 hours
Protocol: as §2

[6] = Penetration of α-santalol into porcine mammary papilla without keratin plug removal (Experiment 25); assay type: in vitro ADME; settings: value (SEM), n=3
Protocol: Experiment procedure—Mammary papillae were setup in FSD and kept for saturation for 12 hours. Then 500 μl of drug formulation was added in the donor. Three 200 μl samples of donor were taken to determine GCMS area of donors. Now 200 μl samples were collected from the receptor on each time point. […] Results may be seen in FIG. 51 and Table 33.

[7] = system: MDA-MB-231 cells; assay: MTT assay (cell viability); assay type: cell-based, human; settings: different concentrations and time points
Protocol: (§3) MTT Assay: After treatment with different concentrations of α-santalol for different time points, cells were incubated with MTT and subsequently solubilized in DMSO. Absorbance was measured at 570 nm.

[8] = system: MCF-7 cells; assay: MTT assay (cell viability); assay type: cell-based, human; settings: different concentrations and time points
Protocol: as §3

[9] = system: MDA-MB-231 cells; assay: BrdU cell proliferation ELISA; assay type: cell-based, human; settings: 24 and 48 hours
Protocol: (§4) BrdU Cell Proliferation ELISA: Used to quantitate cell proliferation based on the measurement of Brdu incorporation during DNA synthesis in proliferating cells. At the end of 24 and 48 hours of treatment, cells were labeled with BrdU, fixed, denatured, and then incubated with Anti-BrdU POD. Absorbance was measured at 405 nm.

[10] = system: MCF-7 cells; assay: BrdU cell proliferation ELISA; assay type: cell-based, human; settings: 24 and 48 hours
Protocol: as §4

[11] = system: MDA-MB-231 cells; assay: TUNEL assay and flow cytometry (apoptosis); assay type: cell-based, human
Protocol: (§5) TUNEL Assay and Flow Cytometry: After incubation with alpha-santalol, cells were fixed with paraformaldehyde and ethanol. DNA strand breaks were labeled with BrdUTP. Brdu incorporation at DNA strand breaks was detected by Alexa Fluor 488 dye-labeled anti-BrdU antibodies. Samples were analyzed by Flow Cytometry.

[12] = system: MCF-7 cells; assay: TUNEL assay and flow cytometry (apoptosis); assay type: cell-based, human
Protocol: as §5

[13] = 6 hours treatment 48 h disposition study

## CC/C(=C(\c1ccccc1)c1ccc(OCCN(C)C)cc1)c1ccccc1 [tamoxifen]
[1]
  Applied dose retained by the tissue: approximately 40%

## C/C(=C/CCC1(C)C2CC3C(C2)C31C)CO (stereo not drawn) [alpha-santalol]
[2]
  Cleavage of apoptotic proteins (western blot): caspase-3 and PARP cleavage
[3]
  Cleavage of apoptotic proteins (western blot): PARP cleavage
[4]
  Cell cycle distribution: arrested cell cycles at the G2/M phase
[5]
  Cell cycle distribution: arrested cell cycles at the G2/M phase
[6]; 5% v/v in 2:1 ethanol:PBS, 6 h treatment
  Tissue retention: 5.21 (0.41) μmole/g tissue
[6]; [13]
  Tissue retention: 5.34 (0.52) μmole/g tissue
  Tissue retention (% of applied dose): 2.01 (0.12) % of applied dose
[6]; 6 h treatment
  Tissue retention (% of applied dose): 2.20 (0.19) % of applied dose
[6]; 48 h treatment
  Tissue retention: 35.52 (3.69) μmole/g tissue
  Tissue retention (% of applied dose): 15.30 (2.20) % of applied dose
[7]
  Cell viability (MTT): inhibition of cell viability and proliferation in a time and dose-dependent manner
[8]
  Cell viability (MTT): inhibition of cell viability and proliferation in a time and dose-dependent manner
[9]
  Cell proliferation (BrdU ELISA): inhibition of cell viability and proliferation in a time and dose-dependent manner
[10]
  Cell proliferation (BrdU ELISA): inhibition of cell viability and proliferation in a time and dose-dependent manner
[11]
  Apoptosis (TUNEL, flow cytometry): significantly induced apoptosis
[12]
  Apoptosis (TUNEL, flow cytometry): significantly induced apoptosis
